# Experimental data published in patent US20080171756A1, “N-Substituted Glycine Derivatives: Prolyl Hydroxylase Inhibitors” (priority 2007, published 2008).
# pEC50: −log10 of the molar value.
# Test system: Hep3B cells
# Assay: Epo protein produced by Hep3B cell line, ELISA / AlphaLISA
# Assay type: cell-based
# Settings: Homo sapiens, 48 hours incubation, 100 micromolar = maximum concentration tested
# Procedure: Hep3B cells obtained from the American Type Culture Collection (ATCC) are seeded at 2×10̂4 cells/well in Dulbecco's Modified Eagle Medium (DMEM)+10% FBS in 96-well plates. Cells are incubated at 37deg C./5% CO2/90% humidity (standard cell culture incubation conditions). After overnight adherence, medium is removed and replaced with DMEM without serum containing test compound or DMSO negative control. Following 48 hours incubation, cell culture medium is collected and assayed by ELISA to quantitate Epo protein.
# Hep3B cells obtained from the American Type Culture Collection (ATCC) are seeded at 2×10̂4 cells/well in Dulbecco's Modified Eagle Medium (DMEM)+10% FBS in 96-well plates. Cells are incubated at 37deg C./5% CO2/90% humidity (standard cell culture incubation conditions). After overnight adherence, medium is removed and replaced with DMEM with 2% serum containing test compound or DMSO negative control. Following 48 hours incubation, cell culture medium is collected and either frozen for later assay or assayed immediately by AlphaLISA to quantitate Epo protein.
row,SMILES,pEC50
1,"O=C(O)CNC(=O)c1c(O)nc(-c2ccccc2)[nH]c1=O [Example 2, N-[(4-Hydroxy-6-oxo-2-phenyl-1,6-dihydro-5-pyrimidinyl)carbonyl]glycine]",< 4.00
2,"O=C(O)CNC(=O)c1c(O)nc(-c2cccc(C(=O)O)c2)[nH]c1=O [Example 18, 3-(5-{[(Carboxymethyl)amino]carbonyl}-4-hydroxy-6-oxo-1,6-dihydro-2-pyrimidinyl)benzoic acid]",< 4.00
3,"O=C(O)CNC(=O)c1c(O)nc(-c2cccc(C(=O)NCc3ccccc3)c2)n(Cc2ccccc2)c1=O [Example 20, N-{[4-Hydroxy-6-oxo-1-(phenylmethyl)-2-(3-{[(phenylmethyl)amino]carbonyl}phenyl)-1,6-dihydro-5-pyrimidinyl]carbonyl}glycine]",< 4.00
4,"O=C(O)CNC(=O)c1c(O)nc(-c2cccc(C(=O)O)c2)n(Cc2ccccc2)c1=O [Example 26, 3-[5-{[(Carboxymethyl)amino]carbonyl}-4-hydroxy-6-oxo-1-(phenylmethyl)-1,6-dihydro-2-pyrimidinyl]benzoic acid]",< 4.00
5,"CC(C)(C)c1ccc(Cn2c(-c3c(Cl)cccc3Cl)nc(O)c(C(=O)NCC(=O)O)c2=O)cc1 [Example 29, N-[(2-(2,6-Dichlorophenyl)-1-{[4-(1,1-dimethylethyl)phenyl]methyl}-4-hydroxy-6-oxo-1,6-dihydro-5-pyrimidinyl)carbonyl]glycine]",< 4.00
6,"O=C(O)CNC(=O)c1c(O)nc(-c2ccccc2Cl)n(Cc2ccccc2)c1=O [Example 30, N-{[2-(2-Chlorophenyl)-4-hydroxy-6-oxo-1-(phenylmethyl)-1,6-dihydro-5-pyrimidinyl]carbonyl}glycine]",< 4.00
7,"Cc1cccc(C)c1-c1nc(O)c(C(=O)NCC(=O)O)c(=O)n1Cc1ccc(C(C)(C)C)cc1 [Example 40, N-{[1-{[4-(1,1-Dimethylethyl)phenyl]methyl}-2-(2,6-dimethylphenyl)-4-hydroxy-6-oxo-1,6-dihydro-5-pyrimidinyl]carbonyl}glycine]",< 4.00
8,"CC(C)(C)c1ccc(Cn2c(-c3c(Br)cccc3Br)nc(O)c(C(=O)NCC(=O)O)c2=O)cc1 [Example 42, N-[(2-(2,6-Dibromolphenyl)-1-{[4-(1,1-dimethylethyl)phenyl]methyl}-4-hydroxy-6-oxo-1,6-dihydro-5-pyrimidinyl)carbonyl]glycine]",< 4.00
9,"CC(C)(C)c1ccc(Cn2c(-c3c(-c4ccccc4)cccc3-c3ccccc3)nc(O)c(C(=O)NCC(=O)O)c2=O)cc1 [Example 43, N-{[1-{[4-(1,1-Dimethylethyl)phenyl]methyl}-4-hydroxy-6-oxo-2-(1,1′:3′,1″-terphenyl-2′-yl)-1,6-dihydro-5-pyrimidinyl]carbonyl}glycine]",< 4.00
10,"CC(C)(C)c1ccc(Cn2c(-c3ccccc3-c3ccccc3)nc(O)c(C(=O)NCC(=O)O)c2=O)cc1 [Example 46, N-[(2-(2-Biphenylyl)-1-{[4-(1,1-dimethylethyl)phenyl]methyl}-4-hydroxy-6-oxo-1,6-dihydro-5-pyrimidinyl)carbonyl]glycine]",< 4.00
11,"CC(C)(C)c1ccc(Cn2c(-c3ccccc3-c3cc(F)cc(F)c3)nc(O)c(C(=O)NCC(=O)O)c2=O)cc1 [Example 47, N-[(2-(3′,5′-Difluoro-2-biphenylyl)-1-{[4-(1,1-dimethylethyl)phenyl]methyl}-4-hydroxy-6-oxo-1,6-dihydro-5-pyrimidinyl)carbonyl]glycine]",< 4.00
12,CC(C)CC(CC(C)C)c1nc(O)c(C(=O)NCC(=O)O)c(=O)n1Cc1ccc(C(C)(C)C)cc1 [Example 48],< 4.00
13,"CC(C)(C)c1ccc(Cn2c(-c3ccccc3-c3ccc(C(F)(F)F)cc3)nc(O)c(C(=O)NCC(=O)O)c2=O)cc1 [Example 49, N-({1-{[4-(1,1-Dimethylethyl)phenyl]methyl}-4-hydroxy-6-oxo-2-[4′-(trifluoromethyl)-2-biphenylyl]-1,6-dihydro-5-pyrimidinyl}carbonyl)glycine]",< 4.00
14,"CC(C)(C)c1ccc(Cn2c(-c3c(Cl)cccc3-c3ccccc3)nc(O)c(C(=O)NCC(=O)O)c2=O)cc1 [Example 55, N-[(2-(3-Chloro-2-biphenylyl)-1-{[4-(1,1-dimethylethyl)phenyl]methyl}-4-hydroxy-6-oxo-1,6-dihydro-5-pyrimidinyl)carbonyl]glycine]",< 4.00
15,"O=C(O)CNC(=O)c1c(O)nc(-c2c(Cl)cccc2-c2ccccc2)n(Cc2ccccc2Cl)c1=O [Example 56, N-({2-(3-Chloro-2-biphenylyl)-1-[(2-chlorophenyl)methyl]-4-hydroxy-6-oxo-1,6-dihydro-5-pyrimidinyl}carbonyl)glycine]",< 4.00
16,"CC(C)(C)c1ccc(Cn2c(-c3c(Cl)cc(Cl)cc3Cl)nc(O)c(C(=O)NCC(=O)O)c2=O)cc1 [Example 57, N-{[1-{[4-(1,1-Dimethylethyl)phenyl]methyl}-4-hydroxy-6-oxo-2-(2,4,6-trichlorophenyl)-1,6-dihydro-5-pyrimidinyl]carbonyl}glycine]",< 4.00
